Assay results taken from US10435371B2, “Multifunctional aminoquinoline therapeutic agent” (LOHOCLA RESEARCH CORPORATION, priority 2014, dated 2019).

Key:
[1] = target: CaV1.2 (Voltage sensitive Ca** channel (L-type)) (Homo sapiens, UniProt Q13936); assay: PDSP radioligand binding; details: Table 3, the 6th table r22c0; read-out: Ki, CaV1.2 (lack of affinity)
[2] = target: T1, GABA-A receptors (α1, β2, γ2s subunits) (UniProt P18508+P47870+P62813); assay: Two-electrode voltage clamp, GABA-A receptors expressed in Xenopus oocytes; format: cell-based, rat α1 and γ2s, human β2; details: FIG. 4A
T1 construct: expressed in transfected cells; host or cells: Xenopus laevis oocytes injected with capped cRNAs (α1:β2:γ2s 2:2:20 ng)
T1 sequence (P62813 28-455): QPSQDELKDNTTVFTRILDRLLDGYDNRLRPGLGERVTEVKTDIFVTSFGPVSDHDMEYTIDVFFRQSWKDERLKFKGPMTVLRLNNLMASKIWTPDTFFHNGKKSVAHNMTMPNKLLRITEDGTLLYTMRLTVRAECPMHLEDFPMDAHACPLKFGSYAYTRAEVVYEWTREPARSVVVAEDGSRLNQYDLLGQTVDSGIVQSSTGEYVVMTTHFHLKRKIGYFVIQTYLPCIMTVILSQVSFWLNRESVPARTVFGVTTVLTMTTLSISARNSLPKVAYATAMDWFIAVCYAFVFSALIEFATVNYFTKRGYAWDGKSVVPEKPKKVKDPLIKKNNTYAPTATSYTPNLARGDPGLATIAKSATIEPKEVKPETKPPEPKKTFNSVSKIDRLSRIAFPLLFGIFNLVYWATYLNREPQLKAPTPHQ
T1 sequence (P47870 26-474 isoform P47870-1 limits assumed): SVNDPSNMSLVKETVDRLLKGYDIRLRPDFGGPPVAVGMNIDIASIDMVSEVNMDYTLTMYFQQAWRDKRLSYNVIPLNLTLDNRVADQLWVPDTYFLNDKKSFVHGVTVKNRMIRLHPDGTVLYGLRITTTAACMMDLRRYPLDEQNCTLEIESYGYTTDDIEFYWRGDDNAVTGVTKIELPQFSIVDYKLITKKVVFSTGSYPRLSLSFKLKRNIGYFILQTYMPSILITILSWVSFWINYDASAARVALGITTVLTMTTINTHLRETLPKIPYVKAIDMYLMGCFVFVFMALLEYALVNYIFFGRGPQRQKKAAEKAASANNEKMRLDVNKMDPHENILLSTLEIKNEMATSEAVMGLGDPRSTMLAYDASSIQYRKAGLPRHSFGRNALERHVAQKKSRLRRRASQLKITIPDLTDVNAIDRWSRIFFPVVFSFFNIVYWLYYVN
T1 sequence (P18508 39-466): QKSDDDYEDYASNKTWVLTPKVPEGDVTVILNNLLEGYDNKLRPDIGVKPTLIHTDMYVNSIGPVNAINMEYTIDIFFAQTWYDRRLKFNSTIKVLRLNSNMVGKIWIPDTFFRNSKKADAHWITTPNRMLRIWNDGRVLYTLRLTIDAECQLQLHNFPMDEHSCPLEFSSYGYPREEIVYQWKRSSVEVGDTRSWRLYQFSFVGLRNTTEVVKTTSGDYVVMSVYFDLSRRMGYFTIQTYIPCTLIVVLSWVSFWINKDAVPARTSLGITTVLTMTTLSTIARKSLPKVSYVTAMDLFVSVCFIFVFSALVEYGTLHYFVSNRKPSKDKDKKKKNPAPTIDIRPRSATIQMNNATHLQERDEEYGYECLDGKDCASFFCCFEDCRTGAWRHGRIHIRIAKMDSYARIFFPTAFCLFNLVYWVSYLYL
Description: Xenopus laevis frogs were obtained from Nasco (Fort Atkinson, Wis., USA). The complementary DNAs encoding the GABAA subunits rat α1 and γ2s and human β2 were provided by Dr. M. H. Akabas and Dr. Paul Whiting, respectively. The in vitro transcription of α1, β2, and γ2s subunits was performed using mMessage mMachine® (Life Technologies, Grand Island, N.Y.). After isolation of Xenopus laevis oocytes, they were injected with capped complementary RNAs encoding α1, β2, and γ2s subunits in a ratio 2:2:20 ng. The injected oocytes were incubated at 15° C. in sterilized Barth's solution [MBS; composition: 88 mM NaCl, 1 mM KCl, 10 mM HEPES, 0.82 mM MgSO4, 2.4 mM NaHCO3, 0.91 mM CaCl2), and 0.33 mM Ca(NO3)2, pH 7.5] for 3-5 days before recording. All surgery was performed according to an approved institutional protocol. The responses of GABAARs expressed in oocytes were studied through two-electrode voltage clamp (Oocyte Clamp OC-725C, Warner Instruments, Hamden, Conn.), recording through a POWERLAB 4/30 system (ADInstruments, Colorado Springs, Colo.). The oocyte was placed in a chamber perfused with MBS, and voltage-clamped at −70 mV.

[3] = system: rats treated with Complete Freund's Adjuvant; assay: Naltrindole reversal of the effect of DCUKA on CFA-induced neuropathic pain; format: in vivo, rat; details: DCUKA 50 mg/kg oral plus intraplantar saline, 2 days after CFA; FIG. 12
Description: Rats were tested for baseline mechanical pain threshold (von Frey test) and given an intraplantar injection of Complete Freunds Adjuvant (CFA) in the left hind paw.

[4] = system: rats treated with Complete Freund's Adjuvant; assay: Combination with morphine, CFA-induced pain, mechanical pain threshold; format: in vivo, rat; details: FIG. 15 Panel A
5-HT1B (Serotonin Rs) = 5-HT1B (Serotonin Rs) (Homo sapiens, UniProt P28222); assay: PDSP radioligand binding
5-HT1B (Serotonin Rs), sequence (P28222 whole entry): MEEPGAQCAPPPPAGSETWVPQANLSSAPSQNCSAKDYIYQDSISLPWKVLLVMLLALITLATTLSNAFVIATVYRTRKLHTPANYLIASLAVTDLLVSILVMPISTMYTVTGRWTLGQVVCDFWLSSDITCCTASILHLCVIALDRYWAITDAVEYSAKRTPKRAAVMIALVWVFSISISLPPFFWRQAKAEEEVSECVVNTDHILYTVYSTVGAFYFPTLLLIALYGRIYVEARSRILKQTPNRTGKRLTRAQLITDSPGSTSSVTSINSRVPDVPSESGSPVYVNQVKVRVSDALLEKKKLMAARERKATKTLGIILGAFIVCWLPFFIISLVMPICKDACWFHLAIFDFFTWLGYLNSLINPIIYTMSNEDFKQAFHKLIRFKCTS

[5] = target: β2 (Adrenergic Rs (beta adrenergic)) (Homo sapiens, UniProt P07550); assay: PDSP radioligand binding
D2 (Dopamine Rs) = D2 (Dopamine Rs) (Homo sapiens, UniProt P14416); assay: PDSP radioligand binding
[6] = target: mGluR5 (Metabotropic Glutamate Rs) (Homo sapiens, UniProt P41594); assay: PDSP radioligand binding
Serotonin Transporter = Serotonin Transporter (Homo sapiens, UniProt P31645); assay: PDSP radioligand binding
V1A (Vasopressin) = V1A (Vasopressin) (Homo sapiens, UniProt P37288); assay: PDSP radioligand binding
V1A (Vasopressin), sequence (P37288 whole entry): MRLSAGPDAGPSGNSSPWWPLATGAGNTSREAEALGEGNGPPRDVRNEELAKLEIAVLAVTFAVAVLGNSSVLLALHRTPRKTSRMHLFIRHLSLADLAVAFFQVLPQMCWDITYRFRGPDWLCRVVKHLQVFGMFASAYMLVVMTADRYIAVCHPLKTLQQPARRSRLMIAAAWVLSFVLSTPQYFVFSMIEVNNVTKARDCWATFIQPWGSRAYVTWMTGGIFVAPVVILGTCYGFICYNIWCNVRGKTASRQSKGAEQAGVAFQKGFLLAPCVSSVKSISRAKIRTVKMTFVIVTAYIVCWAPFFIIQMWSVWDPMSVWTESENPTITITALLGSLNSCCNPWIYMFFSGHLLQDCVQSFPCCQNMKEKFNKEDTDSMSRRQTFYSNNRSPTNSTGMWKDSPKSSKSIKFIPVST

delta opiate receptor = delta opiate receptor (Homo sapiens, UniProt P41143); assay: cAMP accumulation, HeLa cells transfected with D1 receptor, DOR and AC5; format: cell-based; design: expressed in transfected cells; details: HeLa cells, AC5
delta opiate receptor, sequence (P41143 whole entry): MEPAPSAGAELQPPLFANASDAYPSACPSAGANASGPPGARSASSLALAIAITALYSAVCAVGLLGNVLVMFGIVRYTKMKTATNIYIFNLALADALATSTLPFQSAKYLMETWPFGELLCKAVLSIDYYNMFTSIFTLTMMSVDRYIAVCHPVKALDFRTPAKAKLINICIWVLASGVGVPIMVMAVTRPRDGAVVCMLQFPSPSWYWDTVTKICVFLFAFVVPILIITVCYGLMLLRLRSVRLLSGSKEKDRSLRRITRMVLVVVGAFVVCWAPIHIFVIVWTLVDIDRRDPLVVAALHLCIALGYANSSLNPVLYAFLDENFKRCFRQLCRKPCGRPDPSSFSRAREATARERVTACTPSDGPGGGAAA

CaV1.2 (Voltage sensitive Ca** channel (L-type)), sequence (Q13936 whole entry): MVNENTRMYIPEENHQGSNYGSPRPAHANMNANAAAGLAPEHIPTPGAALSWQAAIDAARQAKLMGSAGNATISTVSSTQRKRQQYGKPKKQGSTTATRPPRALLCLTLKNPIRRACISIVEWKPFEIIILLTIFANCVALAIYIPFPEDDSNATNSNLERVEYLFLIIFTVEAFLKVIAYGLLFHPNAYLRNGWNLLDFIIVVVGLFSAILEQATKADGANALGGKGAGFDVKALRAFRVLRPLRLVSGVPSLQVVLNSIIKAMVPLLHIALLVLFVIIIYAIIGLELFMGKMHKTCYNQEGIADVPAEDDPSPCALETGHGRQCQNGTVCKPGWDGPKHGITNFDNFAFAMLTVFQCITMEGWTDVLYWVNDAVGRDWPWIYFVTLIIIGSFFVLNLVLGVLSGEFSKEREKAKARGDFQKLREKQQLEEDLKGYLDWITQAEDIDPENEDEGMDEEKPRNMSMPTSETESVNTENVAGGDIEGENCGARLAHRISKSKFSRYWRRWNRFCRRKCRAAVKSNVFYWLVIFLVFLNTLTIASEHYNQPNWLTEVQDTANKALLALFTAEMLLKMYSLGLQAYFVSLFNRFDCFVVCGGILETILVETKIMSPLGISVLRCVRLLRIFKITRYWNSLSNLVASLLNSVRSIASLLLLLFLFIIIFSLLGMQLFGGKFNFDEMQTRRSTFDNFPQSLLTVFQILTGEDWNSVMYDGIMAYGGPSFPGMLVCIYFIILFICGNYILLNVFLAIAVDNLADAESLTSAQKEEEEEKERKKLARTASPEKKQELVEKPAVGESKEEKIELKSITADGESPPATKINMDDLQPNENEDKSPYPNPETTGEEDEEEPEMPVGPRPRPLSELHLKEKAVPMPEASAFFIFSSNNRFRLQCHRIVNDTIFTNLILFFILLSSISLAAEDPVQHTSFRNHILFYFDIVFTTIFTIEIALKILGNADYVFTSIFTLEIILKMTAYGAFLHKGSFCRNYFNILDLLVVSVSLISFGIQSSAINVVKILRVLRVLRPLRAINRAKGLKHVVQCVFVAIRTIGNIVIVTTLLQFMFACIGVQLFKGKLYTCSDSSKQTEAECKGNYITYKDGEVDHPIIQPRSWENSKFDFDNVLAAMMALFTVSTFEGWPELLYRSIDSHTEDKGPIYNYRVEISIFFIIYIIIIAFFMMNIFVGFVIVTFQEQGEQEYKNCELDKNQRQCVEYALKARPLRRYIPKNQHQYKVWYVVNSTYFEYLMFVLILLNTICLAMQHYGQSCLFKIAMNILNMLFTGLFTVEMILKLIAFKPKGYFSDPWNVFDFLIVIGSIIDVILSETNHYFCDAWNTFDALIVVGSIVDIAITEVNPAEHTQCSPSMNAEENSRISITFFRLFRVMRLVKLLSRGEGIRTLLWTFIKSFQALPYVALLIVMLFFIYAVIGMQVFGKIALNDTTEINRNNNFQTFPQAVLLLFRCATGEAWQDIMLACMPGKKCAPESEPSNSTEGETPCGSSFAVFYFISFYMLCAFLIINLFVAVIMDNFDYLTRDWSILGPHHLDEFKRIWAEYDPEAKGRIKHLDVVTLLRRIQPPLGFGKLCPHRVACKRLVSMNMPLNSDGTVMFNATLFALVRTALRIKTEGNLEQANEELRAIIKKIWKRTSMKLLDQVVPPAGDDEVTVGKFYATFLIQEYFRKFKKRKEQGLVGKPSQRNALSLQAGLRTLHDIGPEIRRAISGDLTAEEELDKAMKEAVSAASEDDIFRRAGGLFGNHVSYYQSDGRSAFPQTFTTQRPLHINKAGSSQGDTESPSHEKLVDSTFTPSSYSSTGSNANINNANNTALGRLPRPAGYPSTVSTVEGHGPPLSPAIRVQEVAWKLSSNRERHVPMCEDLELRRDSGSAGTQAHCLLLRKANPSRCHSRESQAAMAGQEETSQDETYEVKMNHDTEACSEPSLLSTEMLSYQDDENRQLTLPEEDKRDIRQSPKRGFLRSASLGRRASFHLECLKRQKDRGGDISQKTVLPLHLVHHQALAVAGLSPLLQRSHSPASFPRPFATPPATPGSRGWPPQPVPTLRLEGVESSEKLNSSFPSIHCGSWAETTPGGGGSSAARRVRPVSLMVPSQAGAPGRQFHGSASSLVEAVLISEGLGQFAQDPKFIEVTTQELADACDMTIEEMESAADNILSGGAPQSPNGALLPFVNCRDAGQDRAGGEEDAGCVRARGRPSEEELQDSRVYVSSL

O=C(O)c1cc(NC(=O)N(c2ccccc2)c2ccccc2)c2c(Cl)cc(Cl)cc2n1 [DCUKA, 5,7-dichloro-4-(3,3-diphenylureido)quinoline-2-carboxylic acid]
Ki [1]: > 10 µM | Character of action at the GABA-A receptor [2]: positive allosteric modulators (PAM) | GABA-induced chloride currents ([2]; co-applied with EC10 GABA): significantly enhanced GABA-induced currents | Chloride currents, compound alone ([2]; without GABA): no effect on chloride currents by themselves | Mechanical pain threshold [3]: increased the pain threshold back to baseline level | Analgesia, each agent alone at the dose used for the combination [4]: ineffective in producing analgesia | Reversal of CFA-induced pain, combination of DCUKA and morphine ([4]; doses ineffective alone, injected 30 min before test, 48 h after CFA): complete reversal of inflammation-induced chronic pain | Ki (5-HT1B (Serotonin Rs)): > 10 µM | Ki [5]: > 10 µM | Ki (D2 (Dopamine Rs)): > 10 µM | Ki [6]: > 10 µM | Ki (Serotonin Transporter): > 10 µM | Ki (V1A (Vasopressin)): > 10 µM | Character of action at the delta opiate receptor (delta opiate receptor): agonist | IC50 (delta opiate receptor; D1, DOR, 10 μM DA, DCUKA 0.25-20 μM, regression analysis, FIG. 3, read-out: IC50 for inhibition of cAMP accumulation): 3.9 ± 0.47 µM
